Measurements from US20220241314A1, “COMPOSITIONS AND METHODS FOR TREATMENT OF HEPATITIS B VIRUS INFECTION” (priority 2019, published 2022).

Tested on: HBV cccDNA
Assay: Decay kinetics of established cccDNA and HBsAg secretion under treatment from 3 dpi to 20 dpi
Type: cell-based, HBV (Genotype D)
Details: HepG2-hNTCP, treatment from 3 dpi through 20 dpi
Protocol: (5A) HBV infection and treatment schedule. On day 0 HepG2-hNTCP cells were infected with HBV at moi of 1000 Geq/cell, incubated for 24 hr, and media was replaced. On day three the cells were harvested or treated with DMSO, ETV (500 nM), F7 (10 μM), poly-U/UC (100 ng/ml), or with ETC combination with F7 or poly-U/UC, PAMP. Cells were harvested at the indicated points over a 20-day time course. (5B), (5C) DNA was isolated by Hirt extract and subjected to Southern blot analysis using an HBV-specific DNA probe. Percentage values below each lane indicate the relative amount of cccDNA compared to day three control prior to each treatment. The positions of mass markers are indicated. (5D) cccDNA levels were measured by RT-qPCR. Relative cccDNA values to mitochondrial DNA (MT-CO3) are shown. Statistical significance was determined using Student's t test. Data are presented as mean standard deviation (SD), *P<0.01, **P<0.005, ***P<0.001 and ns=non-significant (E) Half-life of cccDNA from RT-qPCR analyses was estimated from the simultaneous fitting of three replicates under each treatment strategy. C(t) is the % values of cccDNA at time ‘t’ post-treatment, C(0) is the % values of cccDNA at the start of the treatment. (5F) HBsAg across the time course for each treatment series. Statistical significance as determined using Student's t test. Data are presented as mean standard deviations (SD), **P<0.005, and ns=non-significant.
ETV is a nucleoside analog that prevents the viral reverse transcription and replication of new synthesized HBV DNAs, thereby preventing the replenishment of cccDNA by de novo formation. ETV was applied to HBV-infected cultures at a 100-fold IC50 (Langley, D. R., et al. (2007). Inhibition of Hepatitis B Virus Polymerase by Entecavir. Journal of virology 81, 3992-4001) thereby allowing for the measurement of cccDNA half-life under conditions in which levels are sustained only from the initial cccDNA pool. Cells were then harvested over a treatment time course, and DNA extracts were analyzed by Southern blot and qPCR assay. […] J Hepatol 69, 1231-1241). […] Enhanced cccDNA decay kinetics by F7 treatment was also confirmed by RT-PCR analysis (FIG. 5D). […] Thus, F7 and poly-U/UC PAMP impart the therapeutic decay of established cccDNA.
Reverse transcription quantitative real time qPCR (RT-qPCR) analysis: Total cellular RNAs were extracted from cells using TRIZOL reagent and the manufacturers protocol (Invitrogen). cDNA was synthesized from the purified RNA by both random and oligo (dT) priming using iScript select cDNA synthesis kit (Biorad, Inc.). For HBV cccDNA expression analysis, total DNA was extracted using the DNeasy kit (QIAGEN). For selective cccDNA PCR analysis, isolated DNAs were treated with 10 Units of T5 exonuclease (NEB) for 30 min in 10 μl of reaction volume in 37° C., followed by heat-inactivation at 95° C. for 5 min and 4-fold dilution with Nuclease-free water. For extra-cellular HBV DNA quantification, an external HBV plasmid standard was used to program the PCR (Ko, C., et al. (2018), supra).

C=C1[C@H](CO)[C@@H](O)C[C@@H]1n1cnc2c(=O)[nH]c(N)nc21 [ETV, Entecavir, reference compound]
production and secretion of HBsAg: Neither ETV nor X RNA treatment of cells had any effect
cccDNA levels over treatment time course (Southern blot, qPCR) (ETV 500 nM, F7 10 μM, poly-U/UC 100 ng/ml): stably maintained cccDNA levels over the time course
